Results on 23 compounds are retold here after US11186588B2 (AYUMI PHARMACEUTICAL CORPORATION, priority 2017, dated 2021).

Usually inhibition stands for the drop in the measured response relative to a control, in per cent.

The target in the assay is Recombinant BRD4 (44-168) protein (Homo sapiens (Human), UniProt O60885). The assay is described as follows: BRD4-H4KAc4 binding assay (amplified luminescence proximity homogeneous assay, AlphaScreen). The procedure: In order to evaluate BRD4 inhibitory activity of the present compounds, BRD4-H4KAc4 binding assay was carried out by an amplified luminescence proximity homogeneous assay. The specific method is described below.
H4KAc4 peptide (available from Toray Research Center, Inc., sequence SGRGK(Ac)GGK(Ac)GLGK(Ac)GGAK(Ac)RHR-K(Biotin)-NH2) was dissolved in 1×Assay buffer to prepare 1 mM H4KAc4 peptide stock solution.
N-terminal His tag/C-terminal FLAG tag-fused type Recombinant BRD4 (44-168) protein (available from Active Motif, Cat No. 31380) was diluted with 1×Assay buffer to 1,250-fold to prepare 250 nM BRD4 solution.
1% DMSO solution (control) and 2 μL of each compound solution in each concentration were added to each well of AlphaPlate-384 (from PerkinElmer, Cat No. 6008350). Next, 2 μL of 250 nM BRD4 solution was added to each well of AlphaPlate-384. Further, 2 μL of 250 nM H4KAc4 peptide solution was added to each well of AlphaPlate-384. After addition of the 250 nM H4KAc4 peptide solution, the mixture was allowed to stand at room temperature under light shielding for 60 minutes, and 4 μL of AlphaScreen beads were added to each well of AlphaPlate-384. After addition of the AlphaScreen beads, the mixture was allowed to stand at room temperature under light shielding for 60 minutes, emission at 520-620 nm upon excitation at 680 nm was detected by EnVision multilabel counter (from PerkinElmer), and binding of BRD4 and H4KAc4 was detected. Incidentally, the evaluation of each compound was carried out in duplicate (2 well per 1 compound).
The BRD4 inhibition rate (%) was calculated by the following equation using Microsoft EXCEL 2010. BRD4 inhibition rate (%)=100−{(luminescence intensity average value of each compound added well)−(average value of luminescence intensity of blank well))/(average value of luminescence intensity of control well)−(average value of luminescence intensity of blank well)}×100

The structures appear in SMILES notation. Read-outs that look alike come from different tables or passages of the source.

Take `Cc1sc2c(c1C)C(c1ccc(Cl)cc1)=NNc1nnc(C)n1-2` [Example 1, 4-(4-chlorophenyl)-2,3,9-trimethyl-6H-thieno[2,3-e][1,2,4]triazolo[3,4-c][1,2,4]triazepine]: the inhibition at 10 µM (10 uM) came out at 99.9%.

Regarding `COc1ccc(CN2N=C(c3ccc(Cl)cc3)c3c(sc(C)c3C)-n3c(C)nnc32)cc1` [Example 2, 4-(4-chlorophenyl)-6-(4-methoxybenzyl)-2,3,9-trimethyl-6H-thieno[2,3-e][1,2,4]triazolo[3,4-c][1,2,4]triazepine], the inhibition at 10 µM (10 uM) stood at 100%.

As to `Cc1sc2c(c1C)C(c1ccc(Cl)cc1)=NN(Cc1cccnc1)c1nnc(C)n1-2` [Example 4, 4-(4-chlorophenyl)-2,3,9-trimethyl-6-(pyridin-3-ylmethyl)-6H-thieno[2,3-e][1,2,4]triazolo[3,4-c][1,2,4]triazepine], the inhibition at 10 µM (10 uM) stood at 100%.

As for `Cc1sc2c(c1C)C(c1ccc(Cl)cc1)=NN(C(=O)Nc1ccccc1)c1nnc(C)n1-2` [Example 15, 4-(4-Chlorophenyl)-2,3,9-trimethyl-N-phenyl-6H-thieno[2,3-e][1,2,4]triazolo[3,4-c][1,2,4]triazepine-6-carboxamide], the inhibition at 10 µM (10 uM) amounted to 22.3%.

Take `Cc1sc2c(c1C)C(c1ccc(Cl)cc1)=NN(Cc1ccccc1C(F)(F)F)c1nnc(C)n1-2` [Example 17, 4-(4-chlorophenyl)-2,3,9-trimethyl-6-(2-(trifluoromethyl)benzyl)-6H-thieno[2,3-e][1,2,4]triazolo[3,4-c][1,2,4]triazepine]: under “10 uM”, the inhibition at 10 µM was 69.7%.

With `Cc1sc2c(c1C)C(c1ccc(Cl)cc1)=NN(CCCc1ccccc1)c1nnc(C)n1-2` [Example 20, 4-(4-chlorophenyl)-2,3,9-trimethyl-6-(3-phenylpropyl)-6H-thieno[2,3-e][1,2,4]triazolo[3,4-c][1,2,4]triazepine], for the setting “10 uM”, the inhibition at 10 µM stood at 82.2%.

`COc1ccc(CN2N=C(c3ccccc3)c3c(sc(C)c3C)-n3c(C)nnc32)cc1` [Example 28, 6-(4-methoxybenzyl)-2,3,9-trimethyl-4-phenyl-6H-thieno[2,3-e][1,2,4]triazolo[3,4-c][1,2,4]triazepine]: the inhibition at 10 µM (10 uM) came to 101%.

With `Cc1sc2c(c1C)C(c1ccccc1)=NN(Cc1cccnc1)c1nnc(C)n1-2` [Example 30, 2,3,9-trimethyl-4-phenyl-6-(pyridin-3-ylmethyl)-6H-thieno[2,3-e]-[1,2,4]triazolo[3,4-c][1,2,4]triazepine], the inhibition at 10 µM (10 uM) was 101%.

Take `Cc1sc2c(c1C)C(c1ccccc1)=NN(Cc1ccncc1)c1nnc(C)n1-2` [Example 32, 2,3,9-trimethyl-4-phenyl-6-(pyridin-4-ylmethyl)-6H-thieno[2,3-e][1,2,4]triazolo[3,4-c][1,2,4]triazepine]: the inhibition at 10 µM (10 uM) was 100%.

For the compound `Cc1sc2c(c1C)C(c1ccc(Cl)cc1)=NN(C(=O)NCc1ccccc1)c1nnc(C)n1-2` [Example 35, N-benzyl-4-(4-chlorophenyl)-2,3,9-trimethyl-6H-thieno[2,3-e][1,2,4]triazolo[3,4-c][1,2,4]triazepine-6-carboxamide], the inhibition at 10 µM (10 uM) was 6.6%.

On to `Cc1sc2c(c1C)C(c1ccc(Cl)cc1)=NN(Cc1ccc(Cl)nc1)c1nnc(C)n1-2` [Example 37, 4-(4-chlorophenyl)-6-((6-chloropyridin-3-yl)methyl)-2,3,9-trimethyl-6H-thieno[2,3-e][1,2,4]triazolo[3,4-c][1,2,4]triazepine], for which the inhibition at 10 µM (10 uM) was determined as 100%.

In the case of `COc1cccnc1CN1N=C(c2ccc(Cl)cc2)c2c(sc(C)c2C)-n2c(C)nnc21` [Example 54, 4-(4-chlorophenyl)-6-((3-methoxypyridin-2-yl)methyl)-2,3,9-trimethyl-6H-thieno[2,3-e][1,2,4]triazolo[3,4-c][1,2,4]triazepine], the inhibition at 10 µM (10 uM) came out at 99.9%.

In the case of `Cc1nnc2n1-c1sccc1C(c1ccc(Cl)cc1)=NN2` [Example 59, 4-(4-chlorophenyl)-9-methyl-6H-thieno[2,3-e][1,2,4]triazolo[3,4-c][1,2,4]triazepine], the inhibition at 10 µM was determined as 100%.

With `Cc1nnc2n1-c1sccc1C(c1ccc(Cl)cc1)=NN2Cc1ccccn1` [Example 62, 4-(4-chlorophenyl)-9-methyl-6-(pyridin-2-ylmethyl)-6H-thieno[2,3-e][1,2,4]triazolo[3,4-c][1,2,4]triazepine], the inhibition at 10 µM (10 uM) worked out at 100%.

Take `COc1ccc(CN2N=C(c3ccc(Cl)cc3)c3c(C)csc3-n3c(C)nnc32)cc1` [Example 66, 4-(4-chlorophenyl)-6-(4-methoxybenzyl)-3,9-dimethyl-6H-thieno[2,3-e][1,2,4]triazolo[3,4-c][1,2,4]triazepine]: the inhibition at 10 µM (10 uM) turned out to be 100%.

On to `COc1ccc(CN2N=C(c3ccc(Cl)cc3)c3cccnc3-n3c(C)nnc32)cc1` [Example 67, 5-(4-chlorophenyl)-7-(4-methoxybenzyl)-10-methyl-7H-pyrido[2,3-e][1,2,4]triazolo[3,4-c][1,2,4]triazepine], for which the inhibition at 10 µM (10 uM) was 100%.

In the case of `COc1ccc(CN2N=C(c3ccc(Cl)cc3)c3c(sc(C)c3C)-n3c(CO)nnc32)cc1` [Example 68, (4-(4-chlorophenyl)-6-(4-methoxybenzyl)-2,3-dimethyl-6H-thieno[2,3-e][1,2,4]triazolo[3,4-c][1,2,4]triazepin-9-yl)methanol], the inhibition at 10 µM (10 uM) was found to be 19.2%.

`COc1ccc(CN2N=C(c3ccc(Cl)cc3)c3c(sc(C)c3C)-n3c2nnc3C(F)(F)F)cc1` [Example 69, 4-(4-chlorophenyl)-6-(4-methoxybenzyl)-2,3-dimethyl-9-(trifluoromethyl)-6H-thieno[2,3-e][1,2,4]triazolo[3,4-c][1,2,4]triazepine]: the inhibition at 10 µM (10 uM) is 52%.

Take `Cc1sc2c(c1C)C(c1ccccc1Cl)=NN(Cc1cccnc1)c1nnc(C)n1-2` [Example 72, 4-(2-chlorophenyl)-2,3,9-trimethyl-6-(pyridin-3-ylmethyl)-6H-thieno[2,3-e][1,2,4]triazolo[3,4-c][1,2,4]triazepine]: the inhibition at 10 µM (10 uM) turned out to be 100%.

Consider `COc1ccc(C2=NN(Cc3cccnc3)c3nnc(C)n3-c3sc(C)c(C)c32)cc1` [Example 76, 4-(4-methoxyphenyl)-2,3,9-trimethyl-6-(pyridin-3-ylmethyl)-6H-thieno[2,3-e][1,2,4]triazolo[3,4-c][1,2,4]triazepine], for which the inhibition at 10 µM (10 uM) was 100%.

For `Cc1sc2c(c1C)C(c1ccc(Cl)cc1)=NN(Cc1cccnc1C(=O)O)c1nnc(C)n1-2` [Example 84, 3-((4-(4-chlorophenyl)-2,3,9-trimethyl-6H-thieno[2,3-e][1,2,4]triazolo[3,4-c][1,2,4]triazepin-6-yl)methyl)picolinic acid], the inhibition at 10 µM (10 uM) is 100%.

In the case of `CCNC(=O)c1ncccc1CN1N=C(c2ccc(Cl)cc2)c2c(sc(C)c2C)-n2c(C)nnc21` [Example 85, 3-((4-(4-chlorophenyl)-2,3,9-trimethyl-6H-thieno[2,3-e][1,2,4]triazolo[3,4-c][1,2,4]triazepin-6-yl)methyl)-N-ethylpicolinamide], the inhibition at 10 µM (10 uM) was determined as 13.3%.

As for `Cc1sc2c(c1C)C(c1ccc(Cl)cc1)=NN(C(=O)Nc1ccccc1)c1nnc(C)n1-2` [Example 91, 4-(4-chlorophenyl)-2,3,9-trimethyl-N-phenyl-6H-thieno[2,3-e][1,2,4]triazolo[3,4-c][1,2,4]triazepine-6-carboxamide], the “BRD4-H4KAc4 binding % of inhibition@10 uM” value (10 uM) turned out to be 22.4%.
